Data on 13 molecules can be found in US5362747A, “2-nitroaryl and 2-cyanoaryl compounds as regulators of nitric oxide synthase” (Abbott Laboratories, priority 1993, dated 1994).

One assay deals with T1, Type I (rat brain) NOS (Rattus norvegicus, UniProt P29476).
T1 construct: isolated from rat brain cerebellum cells partially purified on a phosphocellulose column; from tissue; host or cells: rat brain cerebellum, partially purified on phosphocellulose
As to the kind of experiment: [3H]-arginine to [3H]-citrulline conversion, Type I (rat brain) NOS. The following applies: rat brain cerebellum NOS, 25° C.; for inhibition at 100 µM: read-out: Type I % inhib. @ 100 μM. In kind it is biochemical.

For another assay, the target named is T2, Type II (macrophage) NOS (Mus musculus, UniProt P29477).
T2 construct: cytosolic preparations of NO synthase (type II isoform) were prepared from RAW 264.7 cells; endogenous in cells; host or cells: RAW 264.7 cells, induced 16 hours with lipopolysaccharide; cytosolic preparation
Put plainly: [3H]-arginine to [3H]-citrulline conversion, Type II (macrophage) NOS. Format: biochemical, murine. To be noted: cytosolic NOS from LPS-induced RAW 264.7 cells, 25° C.; for inhibition at 100 µM: read-out: Type II % inhib. @ 100 μM. The text has this:
The enzyme NO synthase produces EDRF/NO and citrulline from L-arginine (Bredt and Snyder, Proc. Nat'l Acad Sci USA, 1989, 87: 682-5). The enzymatic generation of EDRF/NO is monitored by measuring the conversion of [^3 H]-L-arginine to [^3 H]-L-citrulline. An inhibitor of this specific enzymatic reaction lowers the conversion rate and, thus, the amount of [^3 H]-L-citrulline produced. Likewise, a compound acting as a substrate would compete with L-arginine and thereby lower the conversion rate.
The conversion of L-arginine to L-citrulline was assayed as reported previously (Bredt and Snyder, Proc. Nat'l Acad Sci USA, 1989, 87: 682-5) with minor modifications. Briefly, samples of partially purified NO synthase, […] of partially purified NO synthase or, alternately, […] of a cytosolic preparation of NO synthase. The type 1 isoform of NO synthase was isolated from rat brain cerebellum cells partially purified on a phosphocellulose column. The cytosolic preparations of NO synthase (type II isoform) were prepared from RAW 264.7 cells (a murine monocyte-macrophage cell line), induced for 16 hours with […] medium of lipopolysaccharide (LPS). Another enzyme isoform (type III)is known to be present in bovine endothelial cells (BAE cells), and can be utilized if an additional assay is desired. The samples of enzyme were incubated for 20 minutes (3 minutes in the cases of purified enzyme preparations) at 25° C. in the presence of […] L-[2,3-^3 H]arginine (55 Ci /mmol) (containing 34 nM (0.2 mCi)), 1 mM NADPH, 100 nM calmodulin, 2 mM CaCl2, and with varying concentrations of inhibitors, in a final volume of […]. The reaction was stopped by adding 1 mL of stop buffer (2 mM EGTA, 2 mM EDTA, 20 mM HEPES, pH 5.5). The total volume was then applied to a 1 mL Dowex AG 50WX-8 column (Na^+ form, BioRad) that had been pre-equilibrated with the stop buffer. L-[2,3-^3 H]Citrulline was eluted (2×) with 0.5 mL of stop buffer and radioactivity was determined by liquid scintillation counting. The L-[2,3-^3 H]arginine (Dupont, NEN) was purified prior to use on Dowex AG-1-X8 (CH3 CO2 -- form, Bio-Rad), eluted with distilled water, acidified, concentrated on a Speed-Vac (Savant) and stored at -20° C.

The subject of the next assay is NO synthase enzyme. To be noted: cited from earlier work.
For a further assay, the system named is bovine coronary artery. To be noted: cited from earlier work.
In the next assay the test system is EDRF (NO) production. The following applies: cited from earlier work.

T2 sequence (P29477 whole entry, canonical isoform): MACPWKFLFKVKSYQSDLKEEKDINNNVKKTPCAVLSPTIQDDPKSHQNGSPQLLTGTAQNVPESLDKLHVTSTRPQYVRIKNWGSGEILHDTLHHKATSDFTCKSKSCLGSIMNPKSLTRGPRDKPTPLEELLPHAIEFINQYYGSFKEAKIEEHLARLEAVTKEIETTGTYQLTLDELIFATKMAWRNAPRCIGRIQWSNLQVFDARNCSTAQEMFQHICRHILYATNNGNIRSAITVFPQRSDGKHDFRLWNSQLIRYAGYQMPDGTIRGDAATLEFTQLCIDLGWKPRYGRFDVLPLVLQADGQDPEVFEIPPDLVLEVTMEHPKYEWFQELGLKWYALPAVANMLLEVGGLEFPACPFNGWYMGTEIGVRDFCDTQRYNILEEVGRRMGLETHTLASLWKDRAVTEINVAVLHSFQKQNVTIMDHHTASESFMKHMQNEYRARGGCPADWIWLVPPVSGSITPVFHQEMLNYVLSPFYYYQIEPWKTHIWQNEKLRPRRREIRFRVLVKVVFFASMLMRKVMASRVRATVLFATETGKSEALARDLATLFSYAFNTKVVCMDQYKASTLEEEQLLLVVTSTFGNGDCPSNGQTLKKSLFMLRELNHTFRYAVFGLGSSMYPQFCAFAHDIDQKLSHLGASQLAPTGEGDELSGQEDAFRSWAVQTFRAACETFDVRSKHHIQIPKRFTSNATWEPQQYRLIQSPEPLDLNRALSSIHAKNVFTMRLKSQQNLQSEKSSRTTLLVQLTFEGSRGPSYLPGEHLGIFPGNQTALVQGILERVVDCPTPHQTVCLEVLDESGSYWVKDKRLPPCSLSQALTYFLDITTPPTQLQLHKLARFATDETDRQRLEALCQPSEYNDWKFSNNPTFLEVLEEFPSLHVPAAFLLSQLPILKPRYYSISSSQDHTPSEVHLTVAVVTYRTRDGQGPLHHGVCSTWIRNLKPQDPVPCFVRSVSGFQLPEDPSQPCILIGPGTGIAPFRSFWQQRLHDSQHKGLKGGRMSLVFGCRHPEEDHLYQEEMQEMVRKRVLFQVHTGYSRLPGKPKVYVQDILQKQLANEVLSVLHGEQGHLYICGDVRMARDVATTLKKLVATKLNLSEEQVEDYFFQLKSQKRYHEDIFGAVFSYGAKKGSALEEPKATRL
T1 sequence (P29476 whole entry): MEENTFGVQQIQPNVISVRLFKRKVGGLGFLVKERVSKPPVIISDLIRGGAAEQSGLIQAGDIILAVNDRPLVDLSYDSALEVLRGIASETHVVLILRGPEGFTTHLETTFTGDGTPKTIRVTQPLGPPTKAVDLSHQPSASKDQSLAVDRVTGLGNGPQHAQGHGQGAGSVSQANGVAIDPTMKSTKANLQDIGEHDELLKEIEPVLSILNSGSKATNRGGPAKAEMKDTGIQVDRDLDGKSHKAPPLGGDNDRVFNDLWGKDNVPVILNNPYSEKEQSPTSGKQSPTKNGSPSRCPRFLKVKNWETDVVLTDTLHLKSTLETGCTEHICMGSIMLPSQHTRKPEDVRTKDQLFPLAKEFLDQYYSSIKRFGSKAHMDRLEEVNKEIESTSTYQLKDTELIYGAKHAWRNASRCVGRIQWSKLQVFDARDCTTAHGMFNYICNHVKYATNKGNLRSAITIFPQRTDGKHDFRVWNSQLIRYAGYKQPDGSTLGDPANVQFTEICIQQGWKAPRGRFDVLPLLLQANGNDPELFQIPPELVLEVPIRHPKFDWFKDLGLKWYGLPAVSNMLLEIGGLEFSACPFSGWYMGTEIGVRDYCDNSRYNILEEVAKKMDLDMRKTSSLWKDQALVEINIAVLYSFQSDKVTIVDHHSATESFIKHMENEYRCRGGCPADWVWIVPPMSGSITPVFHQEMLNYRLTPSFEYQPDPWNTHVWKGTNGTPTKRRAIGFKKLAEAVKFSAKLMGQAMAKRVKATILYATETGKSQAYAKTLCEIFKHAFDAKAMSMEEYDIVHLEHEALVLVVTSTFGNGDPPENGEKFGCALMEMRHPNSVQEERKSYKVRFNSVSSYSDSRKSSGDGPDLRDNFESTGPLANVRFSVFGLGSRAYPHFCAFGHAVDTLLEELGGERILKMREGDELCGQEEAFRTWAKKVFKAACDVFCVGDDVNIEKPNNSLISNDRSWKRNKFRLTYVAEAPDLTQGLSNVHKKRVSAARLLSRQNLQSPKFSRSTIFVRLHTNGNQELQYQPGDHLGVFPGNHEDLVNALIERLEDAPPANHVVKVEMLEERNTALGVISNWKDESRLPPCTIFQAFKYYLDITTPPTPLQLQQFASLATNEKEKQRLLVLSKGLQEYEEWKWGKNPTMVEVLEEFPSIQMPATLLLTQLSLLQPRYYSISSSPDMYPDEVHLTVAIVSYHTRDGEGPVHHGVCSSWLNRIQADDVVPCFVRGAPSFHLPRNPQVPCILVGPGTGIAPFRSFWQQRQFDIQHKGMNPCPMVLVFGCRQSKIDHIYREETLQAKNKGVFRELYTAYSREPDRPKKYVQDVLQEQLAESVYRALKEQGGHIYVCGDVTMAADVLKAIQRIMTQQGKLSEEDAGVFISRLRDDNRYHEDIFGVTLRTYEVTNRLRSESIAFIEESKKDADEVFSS
Protocol for Type I (rat brain) NOS: Briefly, samples of partially purified NO synthase, 50-100 mg of partially purified NO synthase or, alternately, 20 mL of a cytosolic preparation of NO synthase. The type 1 isoform of NO synthase was isolated from rat brain cerebellum cells partially purified on a phosphocellulose column. […] The reaction was stopped by adding 1 mL of stop buffer (2 mM EGTA, 2 mM EDTA, 20 mM HEPES, pH 5.5). The total volume was then applied to a 1 mL Dowex AG 50WX-8 column (Na^+ form, BioRad) that had been pre-equilibrated with the stop buffer. L-[2,3-^3 H]Citrulline was eluted (2×) with 0.5 mL of stop buffer and radioactivity was determined by liquid scintillation counting.

Turning to `N#Cc1ccccc1NCCC[C@H](N)C(=O)O` [Example 11, (2S)-2-amino-5-(2-cyanophenylamino)pentanoic acid], the inhibition at 100 µM on Type I (rat brain) NOS was 6%; at Type II (macrophage) NOS, 50%. Moreover, the IC50 (as a rule, the concentration needed to halve the response being measured) was greater than 100 µM against Type I (rat brain) NOS and 100 µM against Type II (macrophage) NOS.

Turning to `COc1ccc([N+](=O)[O-])c(NCCC[C@H](N)C(=O)O)c1` [Example 5, (2S)-2-amino-5-(5-methoxy-2-nitrophenylamino)pentanoic acid], the values for the inhibition at 100 µM at Type I (rat brain) NOS and at Type II (macrophage) NOS were 68% and 46%, respectively. Moreover, the values for the IC50 at Type I (rat brain) NOS and against Type II (macrophage) NOS were 20 µM and 100 µM, respectively.

For `Cc1ccc([N+](=O)[O-])c(NCCCC[C@H](N)C(=O)O)c1` [Example 7, (2S)-2-amino-6-(2-nitro-5-methylphenylamino)hexanoic acid], the inhibition at 100 µM on Type I (rat brain) NOS worked out at 91%. Moreover, the IC50 against Type I (rat brain) NOS was 40 µM; at Type II (macrophage) NOS, greater than 100 µM.

Regarding N-hydroxyarginine, the “substrate for the NO synthase enzyme” value with NO synthase enzyme is “substrate”.

On to nitric oxide [nitric oxide (NO)], for which the cGMP accumulation result in the assay on bovine coronary artery (accompanying relaxation of bovine coronary artery) is recorded as “cGMP accumulation”. Further, in the assay on bovine coronary artery, the “relaxation of bovine coronary artery” value is “potent and transient relaxation”.

As to `Cc1ccc([N+](=O)[O-])c(NCCC[C@H](N)C(=O)O)c1` [Example 2, (2S)-2-amino-5-(5-methyl-2-nitrophenylamino)pentanoic acid], at Type I (rat brain) NOS, the inhibition at 100 µM was determined as 88% and inhibition was half-maximal at 4 µM (IC50). Moreover, at Type II (macrophage) NOS, the inhibition at 100 µM is 88% and 10 µM corresponded to half-maximal inhibition (IC50).

Take `N[C@@H](CCCNc1c(Cl)cccc1[N+](=O)[O-])C(=O)O` [Example 6, (2S)-2-amino-5-(2-chloro-6-nitrophenylamino)pentanoic acid]: at Type I (rat brain) NOS, the inhibition at 100 µM is 55% and the 50% inhibitory concentration (IC50) worked out at 100 µM. Moreover, on Type II (macrophage) NOS, the inhibition at 100 µM stood at 11% and the IC50 is greater than 100 µM.

On to `Cc1ccc([N+](=O)[O-])c(SCCC[C@H](N)C(=O)O)c1` [Example 8, 2(S)-amino-5-(5-methyl-2-nitrophenylthioxy)pentanoic acid], for which the inhibition at 100 µM at Type I (rat brain) NOS stood at 97%; on Type II (macrophage) NOS it was 95%. Further, the IC50 turned out to be 1 µM on Type I (rat brain) NOS and 9 µM at Type II (macrophage) NOS.

With `CNC(=N)NCCCC(N)C(=O)O` (centres unmarked) [N^G -methylarginine], the “EDRF (NO) production” value in the assay on EDRF (NO) production is “inhibited”.

On to `Cc1ccc([N+](=O)[O-])c(NCCCC(N)CO)c1` (centres unmarked) [Example 4, 2-amino-5-(5-methyl-2-nitrophenylamino)-1-pentanol], for which the inhibition at 100 µM on Type I (rat brain) NOS was 94%; on Type II (macrophage) NOS, 99%. Also, the IC50 at Type I (rat brain) NOS was found to be 3 µM; on Type II (macrophage) NOS, 2.5 µM.

As for `Cc1ccc([N+](=O)[O-])c(NCCC[C@@H](N)C(=O)O)c1` [Example 10, (2R)-2-amino-5-(5-methyl-2-nitrophenylamino)pentanoic acid], on Type I (rat brain) NOS, the inhibition at 100 µM came out at 58% and the half-inhibitory concentration (IC50) amounted to 70 µM. In addition, at Type II (macrophage) NOS, the inhibition at 100 µM turned out to be 45% and the IC50 is 100 µM.

With `N=C(NCCC[C@H](N)C(=O)O)N[N+](=O)[O-]` [NNLA, NNitro-L-arginine, reference compound], the inhibition at 100 µM at Type I (rat brain) NOS stood at 95%. On Type II (macrophage) NOS, the inhibition at 100 µM worked out at 94% and the half-inhibitory concentration (IC50) is 7 µM.

Turning to `Cc1ccc([N+](=O)[O-])c(NC/C=C/[C@H](N)CO)c1` [Example 3, (2S)-2-amino-5-(5-methyl-2-nitrophenylamino)-pent-3E-en-1-ol], on Type I (rat brain) NOS, the inhibition at 100 µM was 99% and half-maximal inhibition (IC50) was put at 3 µM. At Type II (macrophage) NOS, the half-inhibitory concentration (IC50) turned out to be 10 µM.
